From patent US7642400B2, “Protein kinase C iota” (Mayo Foundation for Medical Education and Research, priority 2004, dated 2010)

Tests used:
A549 cells = assay: Soft agar growth assay (anchorage-independent growth) of A549 cells; format: cell-based, human; conditions: A549 cells, FIG. 20
Description: (§1) Anchorage-independent growth was assayed by the ability of cells to form colonies in soft agar. The bottom agar consisted of growth medium containing 10% FBS and 0.75% agarose in 60-mm tissue culture dishes. Nine hundred cells were resuspended in growth medium containing 10% FBS and 0.75% agarose, and plated on top of the bottom agar. The cells were incubated at 37° C. in 5% CO2. Cell colonies were visualized and quantified under a dissecting microscope (Olympus) after 4-6 weeks in culture.
as §1, with “Soft Agar Growth Assays: Anchorage-independent growth” for “Anchorage-independent growth”, “and 0.75% agarose and plated” for “and 0.75% agarose, and plated”, “bottom agar. ATG was added at the indicated concentration to both bottom and top agar solutions. The cells” for “bottom agar. The cells”

[1] = test system: A549 human lung carcinoma cells; assay: Tumorigenicity in nude mice: A549 subcutaneous tumors; format: in vivo, mouse; conditions: 200 mg/kg body weight intraperitoneal daily, versus saline; FIG. 21
Description: Tumorigenicity in Nude Mice: The growth of A549 human lung carcinoma cells as established subcutaneous tumors was studied in athymic nude mice (Harlan-Sprague-Dawley, Indianapolis, Ind.) in a defined pathogen-free environment. Briefly, A549 cells were grown in F-12K Nutrient Mixture containing 10% FBS. A549 cells were harvested and resuspended in serum-containing medium. 5×10^6 cells in 100 μl of growth medium were injected subcutaneously into the flank of 4-6 week old female nude mice. Once palpable tumors were established (15 days after inoculation) animals were randomly segregated into two groups. One group received intraperitoneal injections of ATG (200 mg/kg body weight) daily; the second group received an equivalent volume of diluent control solution. Tumor size was measured daily. Tumor growth was quantified by measuring the tumors in three dimensions with calipers. Tumor volume (mm^3) was calculated using the formula: 0.5236 (L×W×H), where L represents the length of the tumor, W represents the width of the tumor, and H represents the height of the tumor. Animals were individually monitored throughout the experiment.

[2] = target: T1, interaction of PKCι polypeptides with PAR6 polypeptides (Homo sapiens, UniProt P41743); assay: Secondary screen: PYN bound to plate-immobilised biotin-tagged PAR6; format: binding; conditions: for Secondary Screen: amount of PYN bound to biotin-tagged PAR6 plates
T1 construct: amino acids 1-113 or a full-length PKCι polypeptide; 6xHis; made in house
T1 sequence (P41743 10-122): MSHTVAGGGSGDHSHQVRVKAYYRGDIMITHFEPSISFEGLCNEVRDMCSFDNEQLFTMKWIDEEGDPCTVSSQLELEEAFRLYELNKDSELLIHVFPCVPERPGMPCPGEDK
Description: Multiple test compounds that were classified as hits in the primary screen as well as additional related compounds were evaluated in a secondary screen designed as follows. Briefly, a 96-well microtiter plate coated with streptavidin (Nunc #436014) was incubated for 2-4 hours at room temperature with 100 μl of a 20-30 μg/ml solution of biotin-tagged PAR6 (whole polypeptide) in phosphate-buffered saline containing Tween-20 (PBST). Plates were washed twice with PBST, then once with incubation buffer (50 mM Tris, pH 8.0; 135 mM NaCl; 10% glycerol; 0.002% EDTA). Incubation buffer (50 μl) was added to each well. The compounds to be tested were added (10 μl) followed by PYN (50 μl) diluted in incubation buffer to an approximate concentration of 4000-5000 relative fluorescent units per 50 μl. Plates were incubated overnight at 4° C. Plates were washed twice with incubation buffer, after which 50 μl incubation buffer was added to retain moisture in the wells. The amount of PYN bound on the plates was determined by measuring yellow fluorescence (532/526) in a Typhoon imager. Fluorescence was quantitated by Softmax Pro software.
A dose-response analysis was performed using the secondary screening assay and increasing amounts (e.g., 0, 0.1, 1, 10, 100, and […]) of gossypol, hexestrol, thimerosal, ebselen, ATG, ATM, ellagic acid, cisplatin, apomorphine, or phenylmercuric acetate.

OC[C@H]1O[C@H]([S-])[C@H](O)[C@@H](O)[C@@H]1O.[Au+] [Aurothioglucose]
soft agar growth (A549 cells; 10 μM): decreased soft agar growth | soft agar growth (A549 cells; 100 μM): decreased soft agar growth | tumor growth (tumor volume) [1]: less tumor growth | Secondary Screen [2]: Confirmed | Secondary Screen ([2]; listed as aurothioglucose): confirmed | dose-response analysis using the secondary screening assay ([2]; increasing amounts, e.g. 0, 0.1, 1, 10, 100, and 100 μM): dose-dependent response was detected
